Measured values taken from ChEMBL document CHEMBL1641574 (Bioorg Med Chem, 2011).
pIC50, pKi: −log10 of the molar value. Active and inactive are the calls of the source. The rule behind the calls is not given here.

What was measured:
Assay type in all cases: cell-based
[1] = molecular target: T1, Sodium-dependent dopamine transporter (Homo sapiens, UniProt Q01959); assay: Displacement of [3H]WIN-35428 from human DAT stably expressed in mouse N2A cells by scintillation countnig
[2] = molecular target: T1, Sodium-dependent dopamine transporter; assay: Inhibition of [3H]dopamine uptake at human DAT expressed in mouse N2A cells
[3] = molecular target: T1, Sodium-dependent dopamine transporter; assay: Binding affinity to human DAT expressed in UV irradiated mouse N2A cells by photoaffinity labeling assay; settings: tested as the 125I-labelled form

T1 sequence (Q01959 whole entry): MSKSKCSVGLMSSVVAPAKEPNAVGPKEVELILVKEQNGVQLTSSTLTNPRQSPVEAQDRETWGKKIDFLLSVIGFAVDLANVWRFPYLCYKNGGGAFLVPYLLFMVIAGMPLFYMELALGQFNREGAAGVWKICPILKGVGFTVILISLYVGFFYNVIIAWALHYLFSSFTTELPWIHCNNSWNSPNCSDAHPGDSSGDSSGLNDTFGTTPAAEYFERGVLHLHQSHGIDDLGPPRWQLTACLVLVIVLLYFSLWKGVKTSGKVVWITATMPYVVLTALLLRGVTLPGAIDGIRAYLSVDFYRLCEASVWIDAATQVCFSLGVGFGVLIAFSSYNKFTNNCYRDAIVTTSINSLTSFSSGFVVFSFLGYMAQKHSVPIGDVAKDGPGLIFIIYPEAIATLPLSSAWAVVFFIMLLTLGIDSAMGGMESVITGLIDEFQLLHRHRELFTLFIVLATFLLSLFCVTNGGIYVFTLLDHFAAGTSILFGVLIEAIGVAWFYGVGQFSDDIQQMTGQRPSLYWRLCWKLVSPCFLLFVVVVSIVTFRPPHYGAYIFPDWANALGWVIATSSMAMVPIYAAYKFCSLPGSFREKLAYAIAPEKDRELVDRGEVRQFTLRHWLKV

| SMILES | pKi [1] | pIC50 [2] | Activity [3] |
| --- | --- | --- | --- |
| COC(=O)[C@H](c1ccc(I)cc1)[C@H]1CCCCN1Cc1ccccc1N=[N+]=[N-] (racemic) | 6.29 | 5.91 | – |
| COC(=O)[C@H](c1ccc(I)cc1)[C@H]1CCCCN1Cc1cccc(N=[N+]=[N-])c1 (racemic) | 5.56 | 5.10 | – |
| COC(=O)[C@H](c1cccc(I)c1)[C@H]1CCCCN1 (racemic) | 8.35 | 7.85 | – |
| COC(=O)[C@H](c1ccc(I)cc1)[C@H]1CCCCN1 (racemic) | 7.85 | 7.96 | – |
| COC(=O)[C@H](c1cccc(I)c1)[C@H]1CCCCN1Cc1ccc(N=[N+]=[N-])cc1 (racemic) | 6.18 | 5.74 | – |
| COC(=O)[C@H](c1ccc(I)cc1)[C@H]1CCCCN1Cc1ccc(N=[N+]=[N-])cc1 (racemic) | 6.44 | 5.56 | Active |
| COC(=O)[C@H](c1cccc(I)c1)[C@H]1CCCCN1Cc1ccccc1N=[N+]=[N-] (racemic) | 5.95 | 5.57 | – |
| COC(=O)[C@H](c1cccc(I)c1)[C@H]1CCCCN1Cc1cccc(N=[N+]=[N-])c1 (racemic) | 5.69 | 5.33 | – |
